Earlier results, collected in patent publication US20070293700A1, “Process for the Preparation of Gabapentin” (Zambon Group S.P.A., priority 2004, published 2007).
Read-outs that look alike come from different tables or passages of the source.

What was measured:
[1] = pH at which the isoelectric point is reached

SMILES: NCC1(CC(=O)O)CCCCC1 [gabapentin, 1-(aminomethyl)-cyclohexaneacetic acid]
- solubility in water (0° C.): about 8.5%
- solubility in water (temperature of 20° C.): ~11%
- isoelectric point (pH) [1]: 7.14
